The experiment has as its target T1, Eimeria tenella aldolase 2 (EtALD2), fructose-1,6-bisphosphate aldolase (Eimeria tenella, UniProt U6KYI1).
T1 sequence (U6KYI1 1-368): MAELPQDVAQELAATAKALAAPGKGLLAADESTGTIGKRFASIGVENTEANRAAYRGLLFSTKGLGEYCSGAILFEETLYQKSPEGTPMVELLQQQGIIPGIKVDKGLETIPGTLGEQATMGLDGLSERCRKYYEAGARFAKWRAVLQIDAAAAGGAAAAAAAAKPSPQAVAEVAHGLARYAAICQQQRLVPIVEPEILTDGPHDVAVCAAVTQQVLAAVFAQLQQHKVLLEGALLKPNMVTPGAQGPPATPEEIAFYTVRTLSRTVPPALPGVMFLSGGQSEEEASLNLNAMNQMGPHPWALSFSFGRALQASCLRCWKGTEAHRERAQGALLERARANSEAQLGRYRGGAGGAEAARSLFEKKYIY
Type of experiment: biochemical.

What is called IC50 is the concentration that inhibits the measured activity by half. Low readings indicate greater potency, high ones weaker potency. `O=c1c(O)c(-c2ccc(O)cc2O)oc2cc(O)cc(O)c12` [morin]: the midpoint of inhibition, the IC50, lay at 10.4 µM.

Values taken from publication PMC9385451 (International Journal for Parasitology: Drugs and Drug …, 2022).
